Laboratory results reported in patent publication US20110097745A1, “Method For Detecting Microbes” (priority 2007, published 2011).
In brackets after ≈: the same amount, converted by molar mass.

Tests used:
P. aeroginosa [1] = assay: Gram differentiation with CTAB, tester bacteria luminescence; format: cell-based; conditions: +CTAB (3 ppm), 2 hrs 37 C, read after 60 min
Procedure: (§1) Gram-positive bacteria are more sensitive than Gram-negative bacteria to low concentrations of the cationic detergent CTAB. Overnight grown cultures of different strains of infecting bacteria were washed and suspended in saline. About 10^5 cells/well were aliquoted in 0.1 mL Medium 1 (Davis, 0.1% glucose, 25 ppm YE) in microtiter plates with or without 3 ppm of CTAB. After 2 hrs at 37 degrees Centigrade/Celsius?, 0.15 mL of Medium 2 (+10 ng/mL autoinducer) were added to each well, together with 10^6 cells/mL lux-cells. Luminescence was recorded after 60 min.

E. coli (W4100) = assay: as above; format: cell-based; conditions: +CTAB (3 ppm), 2 hrs 37 C, read after 60 min
Procedure: as §1

Streptococcus sp. = assay: as above; format: cell-based; conditions: +CTAB (3 ppm), 2 hrs 37 C, read after 60 min
Procedure: as §1

S. aureus [2] = assay: as above; format: cell-based; conditions: +CTAB (3 ppm), 2 hrs 37 C, read after 60 min
Procedure: as §1

S. typhi (772) = assay: as above; format: cell-based; conditions: +CTAB (3 ppm), 2 hrs 37 C, read after 60 min
Procedure: as §1

[3] = system: infecting bacteria of urine samples; assay: BLT antibiotic susceptibility of urine samples; format: cell-based; set-up: BLT (luminescence): unit not given here; conditions: for BLT (luminescence): 3 hrs 37 C, concentrations given in Table 5; for antibiotic susceptibility of urine samples: key: R = resistant; S = susceptible
Procedure: Six fresh urine samples were obtained from a local clinic and examined for bacteriuria (>10^5 cells/mL urine) and the antibiotic susceptibility of the infecting bacteriuria. A tube containing a an antibiotic mixture that would eliminate all infecting bacteria but not effect the lux cells (Ampicillin, Kanamycin, Tetracyclin, and Chloramphenicol) served as a control.
Each urine sample was diluted in Medium 1 to yield a final concentration of 3%. 0.1 mL of the diluted samples were then incubated for 3 hrs. at 37 degrees Celsius in a microtitre plate, with or without an antimicrobial substance at the concentrations given in Table 5).
An equal volume of Medium 2 containing 10 ng/ml autoinducer and supplemented with 10^6 of the lux cells was then added to each well. The microtiter plate was then incubated at 28 degrees/Celsius and the luminescence was measured using a plate reader luminometer.
Luminescence was measured in the absence of antibiotics, in the presence of a mixture of antibiotics and in the presence of a single antibiotic from the mixture.
When the ratio of the luminescence measured in the presence of the single antibiotic to that measured in the presence of the antibiotic mix exceeds a second predetermined constant (e.g. 3) then the infecting bacteria are […] to the antibiotic.

S. typhi = assay: microbe, parasite or virus in culture; format: cell-based
[4] = system: infecting bacteria of urine samples; assay: antibiotics disc inhibition zone, urine samples (standard analysis); format: cell-based
Procedure: A standard analysis (urine culture colony count) was performed to evaluate bacterial load (Table 5a) and antibiotic susceptibility (Table 5b).

S. typhimirium (772) = assay: overnight disk diffusion test; format: cell-based; conditions: disk 30 ppm, 16 hrs 37 C
Procedure: (§2) Infecting bacteria (10^6 cells/ml from overnight grown cultures) were spread on LA plates on which 15 mm disks, saturated with various antibiotics, had been placed. After incubating the plates at 37 degrees Celsius for 16 hrs the zone of inhibition was determined for each strain. (Abbreviations used in FIG. 1a and Table 1a: CAP—Chloramphenicol; KAN—Kanamycin; AMP—Ampicillin; CEP—Cephamezin GEN—Gentamycin).

P. aeroginosa [5] = assay: overnight disk diffusion test; format: cell-based; conditions: disk 30 ppm, 16 hrs 37 C
Procedure: as §2

E. coli (W4110) = assay: overnight disk diffusion test; format: cell-based; conditions: disk 30 ppm, 16 hrs 37 C
Procedure: as §2

S. aureus [6] = assay: BLT (bioluminescence test) MIC determination

SMILES: CCCCCCCCCCCCCCCC[N+](C)(C)C.[Br-] [CTAB, Cetyltrimethylammonium bromide]
- luminescence of tester bacteria (P. aeroginosa [1]): 111 LU
- luminescence of tester bacteria (E. coli (W4100)): 52 LU
- luminescence of tester bacteria (Streptococcus sp.): 10,154 LU
- luminescence of tester bacteria (S. aureus [2]): 80,405 LU
- luminescence of tester bacteria (S. typhi (772)): 64 LU

SMILES: O=C(N[C@H](CO)[C@H](O)c1ccc([N+](=O)[O-])cc1)C(Cl)Cl [Chloramphenicol]
- antibiotic susceptibility of urine samples ([3]; urine sample 1): S
- BLT (luminescence) ([3]; urine sample 1, 3% urine): 62
- antibiotic susceptibility of urine samples ([3]; urine sample 2): S
- BLT (luminescence) ([3]; urine sample 2, 3% urine): 46
- antibiotic susceptibility of urine samples ([3]; urine sample 3): S
- BLT (luminescence) ([3]; urine sample 3, 3% urine): 36
- antibiotic susceptibility of urine samples ([3]; urine sample 4): S
- BLT (luminescence) ([3]; urine sample 4, 3% urine): 31.2
- antibiotic susceptibility of urine samples ([3]; urine sample 5): S
- BLT (luminescence) ([3]; urine sample 5, 3% urine): 13
- antibiotic susceptibility of urine samples ([3]; urine sample 6): S
- BLT (luminescence) ([3]; urine sample 6, 3% urine): 41
- LU, fold increase over control (no antibiotics added) (S. typhi; 0.19 ppm): 0.7
- LU, fold increase over control (no antibiotics added) (S. typhi; 0.39 ppm): 0.72
- LU, fold increase over control (no antibiotics added) (S. typhi; 0.78 ppm): 0.63
- LU, fold increase over control (no antibiotics added) (S. typhi; 1.5 ppm): 0.74
- LU, fold increase over control (no antibiotics added) (S. typhi; 3.1 ppm): 1.9
- LU, fold increase over control (no antibiotics added) (S. typhi; 6.25 ppm): 3.61
- LU, fold increase over control (no antibiotics added) (S. typhi; 12.5 ppm): 5.42
- LU, fold increase over control (no antibiotics added) (S. typhi; 25 ppm): 6.84
- LU, fold increase over control (no antibiotics added) (S. typhi; 50 ppm): 5.84
- MIC (S. typhi; Salmonella enterica, TYPHI, lowest concentration giving two-fold increase of tester luminescence above control): ~3 µg/mL (≈ 9.28 µM)
- Antibiotics disc inhibition zone ([4]; urine sample 1, 30 ppm): 5 mm
- Antibiotics disc inhibition zone ([4]; urine sample 2, 30 ppm): 4 mm
- Antibiotics disc inhibition zone ([4]; urine sample 3, 30 ppm): 7 mm
- Antibiotics disc inhibition zone ([4]; urine sample 4, 30 ppm): 5 mm
- Antibiotics disc inhibition zone ([4]; urine sample 6, 30 ppm): 6 mm
- zone of inhibition (S. typhimirium (772)): 30 mm
- zone of inhibition (P. aeroginosa [5]): 15 mm
- zone of inhibition (E. coli (W4110)): 25 mm
- LU, fold increase over control (no antibiotics added) (S. aureus [6]; 0.781 ppm): 0.8
- LU, fold increase over control (no antibiotics added) (S. aureus [6]; 1.562 ppm): 1.3
- LU, fold increase over control (no antibiotics added) (S. aureus [6]; 3.125 ppm): 2.8
- LU, fold increase over control (no antibiotics added) (S. aureus [6]; 6.25 ppm): 5.2
- LU, fold increase over control (no antibiotics added) (S. aureus [6]; 12.5 ppm): 7.2
- LU, fold increase over control (no antibiotics added) (S. aureus [6]; 25 ppm): 11.5
- LU, fold increase over control (no antibiotics added) (S. aureus [6]; 50 ppm): 17.6
- LU, fold increase over control (no antibiotics added) (S. aureus [6]; 100 ppm): 70.1
- MIC (S. aureus [6]; Staphylococcus aureus): ~1.5 µg/mL (≈ 4.64 µM)
